Assay results taken from patent US7196110B2, “N-substituted tricyclic 3-aminopyrazoles as inhibitors for the treatment of cell proliferative disorders” (Janssen Phamaceutica N.V., priority 2002, dated 2007).

Columns and labels:
[1] = target: T1, PDGF-receptor beta enzyme comprising the tyrosine kinase domain (Homo sapiens, UniProt P09619); assay: Inhibition of PDGF-receptor kinase activity (cell-free, PLC1 peptide, 33P Flashplate); assay type: biochemical; conditions: PDGF-R kinase activity; for inhibition at 10 µM: compound at 10 uM, read-out: Percent Inhibition @ 10 uM; for IC50: read-out: IC50
T1 construct: from amino acid 545 to 1106 of GenBank Access NO: AAA36427
T1 sequence (P09619 545-1106): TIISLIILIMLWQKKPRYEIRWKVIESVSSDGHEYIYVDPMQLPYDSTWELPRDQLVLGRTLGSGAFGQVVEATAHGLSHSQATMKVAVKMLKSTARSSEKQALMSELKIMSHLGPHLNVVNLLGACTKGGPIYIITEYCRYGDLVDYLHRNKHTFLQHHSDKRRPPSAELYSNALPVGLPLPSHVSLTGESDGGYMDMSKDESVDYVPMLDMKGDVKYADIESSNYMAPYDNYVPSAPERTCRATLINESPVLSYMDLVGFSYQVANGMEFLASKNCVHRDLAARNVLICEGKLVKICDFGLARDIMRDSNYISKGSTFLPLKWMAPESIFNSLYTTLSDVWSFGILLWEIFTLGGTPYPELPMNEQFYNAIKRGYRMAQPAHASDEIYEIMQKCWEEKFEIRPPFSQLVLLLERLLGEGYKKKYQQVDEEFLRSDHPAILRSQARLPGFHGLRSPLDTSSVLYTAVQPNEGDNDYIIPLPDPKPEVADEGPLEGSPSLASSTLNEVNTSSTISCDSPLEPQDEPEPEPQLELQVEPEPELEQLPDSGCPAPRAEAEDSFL
Method in brief: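 The IC50 is the inhibitor level halving kinase activity relative to inhibitor-free wells, measured as 33P captured on a streptavidin-bound biotin-PLC1 peptide. The reaction ran 60 min at 30 °C in pH 8 Tris buffer with 1 mM DTT, 5 μM ATP and the 545–1106 kinase-domain enzyme.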

c-Abl kinase = c-Abl kinase (Abelson murine leukemia virus, UniProt P00521); assay: Inhibition of c-Abl kinase activity (cell-free, Abl peptide substrate, 33P Flashplate); assay type: biochemical; conditions: IC50 for the c-Abl kinase activity
Sequence of c-Abl kinase (P00521 115-385): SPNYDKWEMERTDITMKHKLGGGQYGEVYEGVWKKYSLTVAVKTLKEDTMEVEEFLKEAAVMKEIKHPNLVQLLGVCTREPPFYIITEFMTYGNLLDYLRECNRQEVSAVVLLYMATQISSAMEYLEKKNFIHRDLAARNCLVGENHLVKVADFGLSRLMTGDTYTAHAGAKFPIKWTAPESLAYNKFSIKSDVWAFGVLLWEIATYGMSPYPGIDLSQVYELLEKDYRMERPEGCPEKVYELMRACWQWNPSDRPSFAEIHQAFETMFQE

SMILES	inhibition at 10 µM [1] [%]	IC50 [1] [nM]	IC50 (c-Abl kinase) [nM]
Fc1ccc(F)c(Nc2[nH]nc3c2Cc2ccccc2-3)c1 [Compound 339, (2,5-Difluoro-phenyl)-(2,4-dihydro-indeno[1,2-c]pyrazol-3-yl)-amine]	100	117	2180
COc1ccc(OC)c(Nc2[nH]nc3c2Cc2ccccc2-3)c1 [Compound 341, (2,4-Dihydro-indeno[1,2-c]pyrazol-3-yl)-(2,5-dimethoxy-phenyl)-amine]	92.5	41.2	350
CCOc1cc2c(cc1OCC)C(C)c1c-2n[nH]c1Nc1cccc(OC)c1 (stereo not drawn) [Compound 348, (6,7-Diethoxy-4-methyl-2,4-dihydro-indeno[1,2-c]pyrazol-3-yl)-(3-methoxy-phenyl)-amine]	97.5	25.3	11
COc1cc2c(cc1F)Cc1c-2n[nH]c1Nc1cccc(Br)c1 [Compound 358, (3-Bromo-phenyl)-(6-fluoro-7-methoxy-2,4-dihydro-indeno[1,2-c]pyrazol-3-yl)-amine]	92	8.77	338
COc1cc2c(cc1F)Cc1c-2n[nH]c1Nc1ccc(F)c(Cl)c1 [Compound 359, (3-Chloro-4-fluoro-phenyl)-(6-fluoro-7-methoxy-2,4-dihydro-indeno[1,2-c]pyrazol-3-yl)-amine]	98.5	41.5	143
COc1cccc(Nc2[nH]nc3c2Cc2cc(F)c(OC)cc2-3)c1 [Compound 360, (6-Fluoro-7-methoxy-2,4-dihydro-indeno[1,2-c]pyrazol-3-yl)-(3-methoxy-phenyl)-amine]	98	7.5	77
COc1cc2c(cc1F)Cc1c-2n[nH]c1Nc1ccc(F)cc1 [Compound 361, (6-Fluoro-7-methoxy-2,4-dihydro-indeno[1,2-c]pyrazol-3-yl)-(4-fluoro-phenyl)-amine]	100	11.6	43
COc1cc2c(cc1O)Cc1c-2n[nH]c1Nc1cccc(F)c1 [Compound 363, 3-(3-Fluoro-phenylamino)-7-methoxy-2,4-dihydro-indeno[1,2-c]pyrazol-6-ol]	76.5	5.47	1
COc1cc2c(cc1Br)Cc1c-2n[nH]c1Nc1cccc(F)c1 [Compound 369, (6-Bromo-7-methoxy-2,4-dihydro-indeno[1,2-c]pyrazol-3-yl)-(3-fluoro-phenyl)-amine]	100	18.7	47
COc1cccc(Nc2[nH]nc3c2Cc2cc(Br)c(OC)cc2-3)c1 [Compound 370, (6-Bromo-7-methoxy-2,4-dihydro-indeno[1,2-c]pyrazol-3-yl)-(3-methoxy-phenyl)-amine]	94	12.2	6
CCOc1cc2c(cc1OCCCO)-c1n[nH]c(Nc3cccnc3)c1C2 [Compound 371, 3-[6-Ethoxy-3-(pyridin-3-ylamino)-2,4-dihydro-indeno[1,2-c]pyrazol-7-yloxy]-propan-1-ol]	100	47.6	905
OCCCOc1cc2c(cc1OCCCO)-c1n[nH]c(Nc3cccc(Cl)c3)c1C2 [Compound 373, 3-[3-(3-Chloro-phenylamino)-7-(3-hydroxy-propoxy)-2,4-dihydro-indeno[1,2-c]pyrazol-6-yloxy]-propan-1-ol]	100	3.77	10
CCOc1cccc(Nc2[nH]nc3c2Cc2cc(OC)c(OC)cc2-3)c1 [Compound 374, (6,7-Dimethoxy-2,4-dihydro-indeno[1,2-c]pyrazol-3-yl)-(3-ethoxy-phenyl)-amine]	100	14.1	51
CCOc1cccc(Nc2[nH]nc3c2Cc2cc(OCCCO)c(OC)cc2-3)c1 [Compound 376, 3-[3-(3-Ethoxy-phenylamino)-7-methoxy-2,4-dihydro-indeno[1,2-c]pyrazol-6-yloxy]-propan-1-ol]	100	9.1	60
CCOc1cccc(Nc2[nH]nc3c2Cc2cc(OCC(O)CO)c(OC)cc2-3)c1 (stereo not drawn) [Compound 379, 3-[3-(3-Ethoxy-phenylamino)-7-methoxy-2,4-dihydro-indeno[1,2-c]pyrazol-6-yloxy]-propane-1,2-diol]	100	8.12	14
Fc1cccc(Nc2[nH]nc3c2oc2ccccc23)c1 [Compound 380, (3-Fluoro-phenyl)-(2H-8-oxa-2,3-diaza-cyclopenta[a]inden-1-yl)-amine]	99.5	15.3	327

SMILES	inhibition at 10 µM [1] [%]	IC50 [1] [nM]	IC50 (c-Abl kinase) [nM]
Fc1ccc(Nc2[nH]nc3c2oc2ccccc23)cc1Cl [Compound 381, (3-Chloro-4-fluoro-phenyl)-(2H-8-oxa-2,3-diaza-cyclopenta[a]inden-1-yl)-amine]	100	54.9	1500
CCOc1cc2c(cc1OCCCO)Cc1c-2n[nH]c1Nc1cccc(F)c1 [Compound 382, 3-[7-Ethoxy-3-(3-fluoro-phenylamino)-2,4-dihydro-indeno[1,2-c]pyrazol-6-yloxy]-propan-1-ol]	100	11.9	19
CCOc1cc2c(cc1OCCCO)Cc1c-2n[nH]c1Nc1cccnc1 [Compound 383, 3-[7-Ethoxy-3-(pyridin-3-ylamino)-2,4-dihydro-indeno[1,2-c]pyrazol-6-yloxy]-propan-1-ol]	93	25.3	183
CCOc1cc2c(cc1OCCCO)Cc1c-2n[nH]c1Nc1cccc(OC)c1 [Compound 384, 3-[7-Ethoxy-3-(3-methoxy-phenylamino)-2,4-dihydro-indeno[1,2-c]pyrazol-6-yloxy]-propan-1-ol]	100	5.61	4
COc1cc2c(cc1OCCCO)Cc1c-2n[nH]c1NCc1ccccc1Cl [Compound 385, 3-[3-(2-Chloro-benzylamino)-7-methoxy-2,4-dihydro-indeno[1,2-c]pyrazol-6-yloxy]-propan-1-ol]	98.5	4.07	12
COc1cc2c(cc1OCCCO)Cc1c-2n[nH]c1NCc1ccccc1F [Compound 386, 3-[3-(2-Fluoro-benzylamino)-7-methoxy-2,4-dihydro-indeno[1,2-c]pyrazol-6-yloxy]-propan-1-ol]	95.5	11	20
OCCCOc1cc2c(cc1OCCCO)-c1n[nH]c(Nc3ccc(F)c(Cl)c3)c1C2 [Compound 389, 3-[3-(3-Chloro-4-fluoro-phenylamino)-7-(3-hydroxy-propoxy)-2,4-dihydro-indeno[1,2-c]pyrazol-6-yloxy]-propan-1-ol]	98	15.1	17
COc1cc2c(cc1OCC(O)CN1CCCC1)Cc1c-2n[nH]c1NCc1c(F)cccc1F (stereo not drawn) [Compound 391, 1-[3-(2,6-Difluoro-benzylamino)-7-methoxy-2,4-dihydro-indeno[1,2-c]pyrazol-6-yloxy]-3-pyrrolidin-1-yl-propan-2-ol]	99	6.8	14
COc1cc2c(cc1OCC(O)CN1CCCC1)Cc1c-2n[nH]c1NCc1ccccc1Cl (stereo not drawn) [Compound 396, 1-[3-(2-Chloro-benzylamino)-7-methoxy-2,4-dihydro-indeno[1,2-c]pyrazol-6-yloxy]-3-pyrrolidin-1-yl-propan-2-ol]	99.5	5.13	2
OCCCOc1cc2c(cc1OCCCO)-c1n[nH]c(Nc3cccc(F)c3)c1C2 [Compound 398, 3-[3-(3-Fluoro-phenylamino)-6-(3-hydroxy-propoxy)-2,4-dihydro-indeno[1,2-c]pyrazol-7-yloxy]-propan-1-ol]	96	6.82	10
COc1cccc(Nc2[nH]nc3c2Cc2cc(OCCCO)c(OCCCO)cc2-3)c1 [Compound 400, 3-[7-(3-Hydroxy-propoxy)-3-(3-methoxy-phenylamino)-2,4-dihydro-indeno[1,2-c]pyrazol-6-yloxy]-propan-1-ol]	98.5	2.92	5
CCOc1cccc(Nc2[nH]nc3c2Cc2cc(OCCCO)c(OCCCO)cc2-3)c1 [Compound 401, 3-[3-(3-Ethoxy-phenylamino)-7-(3-hydroxy-propoxy)-2,4-dihydro-indeno[1,2-c]pyrazol-6-yloxy]-propan-1-ol]	98.5	22	14
Clc1cccc(Cl)c1CNc1[nH]nc2c1Cc1c(OCCCN3CCOCC3)cccc1-2 [Compound 415, (2,6-Dichloro-benzyl)-[5-(3-morpholin-4-yl-propoxy)-2,4-dihydro-indeno[1,2-c]pyrazol-3-yl]-amine]	98	25.8	219
CCC1c2cc(OC)c(OC)cc2-c2n[nH]c(Nc3cccc(Cl)c3)c21 (stereo not drawn) [Compound 419, (3-Chloro-phenyl)-(4-ethyl-6,7-dimethoxy-2,4-dihydro-indeno[1,2-c]pyrazol-3-yl)-amine]	100	62.1	292
COc1cccc2c1Cc1c-2n[nH]c1Nc1cccc(F)c1 [Compound 422, (3-Fluoro-phenyl)-(5-methoxy-2,4-dihydro-indeno[1,2-c]pyrazol-3-yl)-amine]	83	29.7	3080
COc1cc2c(cc1OCCCO)Cc1c-2n[nH]c1NCc1c(Cl)cccc1Cl [Compound 448, 3-[3-(2,6-Dichloro-benzylamino)-7-methoxy-2,4-dihydro-indeno[1,2-c]pyrazol-6-yloxy]-propan-1-ol]	100	1.77	3
